The values that follow come from patent US7897582B2, “Oligonucleotide compositions and methods for the modulation of the expression of B7 protein” (Isis Pharmaceuticals, Inc., priority 2003, dated 2011).

Strand notation (5' to 3'): a small letter for the sugar, then the base; units joined by * are phosphorothioate-linked, units joined directly phosphodiester-linked; [ ] holds rarer units or linkages, { } end groups; capitals alone tell only the bases. e = 2'-O-(2-methoxyethyl) (MOE); [5mC] = 5-methylcytosine; d = 2'-deoxy (DNA)

The test system of one data set is human B7-2. Nature of the data set: Cell surface expression of B7-2 in transfected COS-7 cells by flow cytometry. Type of data set: cell-based. As to conditions: 200 nM; FIG. 3. How it is done:
A T-175 flask was seeded at 75% confluency with COS-7 cells (ATCC accession No. CRL 1651). The plasmid pcB7-1 was introduced into cells by standard calcium phosphate transfection. Following a 4 hour transfection, the cells were trypsinized and seeded in 12-well dishes at 80% confluency. The cells were allowed to adhere to the plastic for 1 hour and were then washed with phosphate-buffered saline (PBS). OptiMEM™ (GIBCO-BRL, Gaithersburg, Md.) medium was added along with 15 μg/mL of Lipofectin™ (GIBCO-BRL, Gaithersburg, Md.) and oligonucleotide at the indicated concentrations. After four additional hours, the cells were washed with phosphate buffered saline (PBS) and incubated with fresh oligonucleotide at the same concentration in DMEM (Dulbecco et al., Virol., 1959, 8, 396; Smith et al., Virol., 1960, 12, 185) with 10% fetal calf sera (FCS).
In order to monitor the effects of oligonucleotides on cell surface expression of B7-1, treated COS-7 cells were harvested by brief trypsinization 24-48 hours after oligonucleotide treatment. The cells were washed with PBS, then resuspended in 100 μL of staining buffer (PBS, 0.2% BSA, 0.1% azide) with 5 μL conjugated anti-B7-1-antibody (i.e., anti-hCD80-FITC, Ancell, Bayport, Minn.; FITC: fluorescein isothiocyanate). The cells were stained for 30 minutes at 4° C., washed with PBS, resuspended in 300 μL containing 0.5% paraformaldehyde. Cells were harvested and the fluorescence profiles were determined using a flow cytometer.
In an initial screen, the ability of hB7-2 oligonucleotides to inhibit B7-2 expression was evaluated by measuring the cell surface expression of B7-2 in transfected COS-7 cells by flow cytometry. The methods used were similar to those given in Example 2, with the exceptions that (1) COS-7 cells were transfected with the plasmids pbcB7-2 or BBG-58, a human ICAM-1 (CD54) expression vector (R&D Systems, Minneapolis, Minn.) introduced into cells by standard calcium phosphate transfection, (2) the oligonucleotides used were those described in Table 2, and (3) a conjugated anti-B7-2 antibody (i.e., anti-hCD86-FITC or anti-CD86-PE, PharMingen, San Diego, Calif.; PE: phycoerythrin) was used during flow cytometry.
B7 antisense oligonucleotides were tested for their effect on cell surface expression of both B7-1 and B7-2. Cell surface expression was measured as described in Example 1. Experiments were done for both human B7 and mouse B7.
The oligonucleotides were screened as described in Example 2 except that the concentration of oligonucleotide was varied as shown in Table 19.
In the case of “ISIS 10715: scrambled control of # 9133; SEQ ID NO: 76 (antisense dG*dA*dT*dT*dT*dA*dA*dC*dA*dT*dT*dT*dG*dG*dC*dG*dC*dC*dC*dA) [reference compound]”, the “inhibitory activity on B7-2 cell surface expression” value is recorded as “no inhibitory activity”. Still for that read-out and setting: the entry for “ISIS 10716: scrambled # 9136; SEQ ID NO: 77 (antisense dA*dA*dA*dG*dT*dT*dA*dC*dA*dA*dC*dA*dT*dT*dA*dT*dA*dT*dC*dT) [reference compound]” is “no inhibitory activity”.

Staying with this data set, now noted: 200 nM; protein expression assay; ISIS 10996 and 2′-O-methyl derivatives.
Take “5′-GCG-AGC-TCC-CCG-TAC (antisense GCGAGCTCCCCGTAC; listed as DNA, chemistry not given here) [ISIS 10996, 15-mer derived from ISIS 10373, 0015-0029; 5′-UTR]”: the “B7-2 expression relative to untreated cells” value is “about 50%”. Same read-out and setting: then “ISIS 11539: fully 2′MO # 10996; SEQ ID NO: 90 (antisense GCGAGCTCCCCGTAC; all 2'-O-methyl, all phosphorothioate, T or U not given here)”, with “not active at all”.

The data set is the same for the next values; noted with them: ISIS 10373 deletion derivatives; FIG. 4.
For “5′-GCG-AGC-TCC-CCG-TAC (antisense GCGAGCTCCCCGTAC; listed as DNA, chemistry not given here) [ISIS 10996, 15-mer derived from ISIS 10373, 0015-0029; 5′-UTR]”, the “activity in the B7-2 protein expression assay” value is listed as “as (or more) active”. As to “ISIS 10991: # 10373 deletion derivative, 10-mer, 0015-0024; SEQ ID NO: 85 (antisense dC*dT*dC*dC*dC*dC*dG*dT*dA*dC)”, the “activity in the B7-2 protein expression assay” value is reported as “little or no activity”. On to “ISIS 10992: # 10373 deletion derivative, 11-mer, 0015-0025; SEQ ID NO: 86 (antisense dG*dC*dT*dC*dC*dC*dC*dG*dT*dA*dC)”, for which the “activity in the B7-2 protein expression assay” value was “little or no activity”. On the same count and under the same terms, the entry for “ISIS 10993: # 10373 deletion derivative, 12-mer, 0015-0026; SEQ ID NO: 87 (antisense dA*dG*dC*dT*dC*dC*dC*dC*dG*dT*dA*dC)” is “little or no activity”; for “ISIS 10994: # 10373 deletion derivative, 13-mer, 0015-0027; SEQ ID NO: 88 (antisense dG*dA*dG*dC*dT*dC*dC*dC*dC*dG*dT*dA*dC)” it is “little or no activity”. On the same count and under the same terms, the entry for “ISIS 10995: # 10373 deletion derivative, 14-mer, 0015-0028; SEQ ID NO: 89 (antisense dC*dG*dA*dG*dC*dT*dC*dC*dC*dC*dG*dT*dA*dC)” is “little or no activity”.

The next data set deals with human B7.2 mRNA. Nature of the data set: Human B7.2 mRNA levels in THP-1 cells by quantitative real-time PCR (Example 27). The class given is cell-based. Further details: concentration or dose not given beside the values.
Details: not given
The text has this:
In accordance with the present invention, an additional series of antisense compounds were designed to target different regions of the human B7.2 RNA, using published sequences (GenBank accession number U04343.1, incorporated herein as SEQ ID NO: 295, GenBank accession number BC040261.1, incorporated herein as SEQ ID NO: 296 and GenBank accession number NT—005543.12, a portion of which is incorporated herein as SEQ ID NO: 297). “Target site” indicates the first (5′-most) nucleotide number on the particular target sequence to which the compound binds. All compounds in Table 25 are chimeric oligonucleotides (“gapmers”) 20 nucleotides in length, composed of a central “gap” region consisting of ten 2′-deoxynucleotides, which is flanked on both sides (5′ and 3′ directions) by five-nucleotide “wings”. The wings are composed of 2′-methoxyethyl (2′-MOE)nucleotides. The internucleoside (backbone) linkages are phosphorothioate (P═S) throughout the oligonucleotide. All cytidine residues are 5-methylcytidines. The compounds were analyzed for their effect on human B7.2 mRNA levels in THP-1 cells by quantitative real-time PCR as described in other examples herein. Data are averages from three experiments. If present, “N.D.” indicates “no data”.
Regarding “323676 (antisense e[5mC]*e[5mC]*eT*e[5mC]*eA*dA*dG*d[5mC]*dT*d[5mC]*dT*dA*dT*dA*dG*eA*eG*eA*eA*eA) [compound 323676]”, the “% INHIB (inhibition of human B7.2 mRNA levels)” value (“% INHIB” for short) came out at 24%. On the same count and under the same terms, the figure for “323677 (antisense eG*eG*eA*eG*eG*d[5mC]*dT*dG*dA*dG*dG*dG*dT*d[5mC]*d[5mC]*eT*e[5mC]*eA*eA*eG) [compound 323677]” is 55%; for “323678 (antisense eA*eG*eT*eA*e[5mC]*dA*dG*d[5mC]*dT*dG*dT*dA*dA*dT*d[5mC]*e[5mC]*eA*eA*eG*eG) [compound 323678]” it is 23%; for “323679 (antisense eT*eT*eG*eG*eA*dA*dG*dT*dA*d[5mC]*dA*dG*d[5mC]*dT*dG*eT*eA*eA*eT*e[5mC]) [compound 323679]” it is 60%. Same read-out and setting: the figure for “323680 (antisense eA*eT*eA*eA*eT*dA*dA*d[5mC]*dT*dG*dT*dT*dG*dG*dA*eA*eG*eT*eA*e[5mC]) [compound 323680]” is 51%.

“323681 (antisense e[5mC]*eA*eT*e[5mC]*eA*d[5mC]*dA*d[5mC]*dA*dT*dA*dT*dA*dA*dT*eA*eA*e[5mC]*eT*eG) [compound 323681]”: the “% INHIB” value turned out to be 8%. The same measure, in the same setting: then “323682 (antisense eT*e[5mC]*e[5mC]*eA*eT*dT*dT*d[5mC]*d[5mC]*dA*dT*dA*dG*dA*dA*eT*eT*eA*eG*eA) [compound 323682]”, with 35%; and “323683 (antisense eT*e[5mC]*eT*eT*e[5mC]*dT*dT*d[5mC]*d[5mC]*dA*dT*dT*dT*d[5mC]*d[5mC]*eA*eT*eA*eG*eA) [compound 323683]”, with 16%; and “323684 (antisense eA*eT*eT*eT*eA*dT*dA*dA*dG*dA*dG*dT*dT*dG*d[5mC]*eG*eA*eG*eG*e[5mC]) [compound 323684]”, with 32%. Same read-out and setting: the figure for “323685 (antisense eT*eT*eG*eG*eT*dT*d[5mC]*d[5mC]*dA*d[5mC]*dA*dT*dT*dT*dA*eT*eA*eA*eG*eA) [compound 323685]” is 18%. Still for that read-out and setting: the figure for “323686 (antisense e[5mC]*eT*e[5mC]*eT*e[5mC]*d[5mC]*dA*dT*dT*dG*dT*dG*dT*dT*dG*eG*eT*eT*e[5mC]*e[5mC]) [compound 323686]” is 53%; for “323687 (antisense e[5mC]*eT*eT*e[5mC]*e[5mC]*d[5mC]*dT*d[5mC]*dT*d[5mC]*d[5mC]*dA*dT*dT*dG*eT*eG*eT*eT*eG) [compound 323687]” it is 19%; for “323688 (antisense eT*eG*eG*eT*e[5mC]*dT*dG*dT*dT*d[5mC]*dA*d[5mC]*dT*d[5mC]*dT*e[5mC]*eT*eT*e[5mC]*e[5mC]) [compound 323688]” it is 58%.

On to “323689 (antisense eT*eT*e[5mC]*eA*eT*d[5mC]*dA*dG*dA*dT*d[5mC]*dT*dT*dT*d[5mC]*eA*eG*eG*eT*eA) [compound 323689]”, for which the “% INHIB” value amounted to 43%.

For the substance “323690 (antisense eA*eT*e[5mC]*eA*e[5mC]*dT*dT*dT*dT*dG*dT*d[5mC]*dG*d[5mC]*dA*eT*eG*eA*eA*eG) [compound 323690]”, the “% INHIB” value was 82%.

Turning to “323691 (antisense eG*e[5mC]*eT*eT*eT*dA*d[5mC]*dT*d[5mC]*dT*dT*dT*dA*dA*dT*eT*eA*eA*eA*eA) [compound 323691]”, the “% INHIB” value was 40%. In the case of “323692 (antisense eG*eT*eA*eT*eG*dG*dG*d[5mC]*dT*dT*dT*dA*d[5mC]*dT*d[5mC]*eT*eT*eT*eA*eA) [compound 323692]”, the “% INHIB” value is recorded as 57%. Same read-out and setting: the figure for “323693 (antisense eA*eT*eA*e[5mC]*eT*dT*dG*dT*dA*dT*dG*dG*dG*d[5mC]*dT*eT*eT*eA*e[5mC]*eT) [compound 323693]” is 62%; for “323694 (antisense eA*eA*eT*eG*eA*dA*dT*dA*d[5mC]*dT*dT*dG*dT*dA*dT*eG*eG*eG*e[5mC]*eT) [compound 323694]” it is 71%.
